# Measurements as given in article PMC7156458, “Synthetic biology based construction of biological activity-related library of fungal decalin-containing diterpenoid pyrones” (Nature Communications, 2020).
# Target: Aβ42 (Homo sapiens, UniProt P05067)
# Experiment: Th-T (thioflavin-T) assay of Aβ42 aggregation
# Assay type: biochemical
# Settings: for Th-T assay plate reading, mean of three wells (Supplementary Fig. 47): source data, Ab alone and No Ab as controls
# Aβ42, sequence (P05067 672-713): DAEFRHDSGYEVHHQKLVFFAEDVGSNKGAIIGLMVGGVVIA
compound,measurement,setting,value
C=C1CCC2C(C)(CCC=C(C)C)C(O)CCC2(C)C1Cc1c(OC)oc(C)c(C)c1=O (stereo not drawn) [Compound 11],"Th-T fluorescence, mean of three wells","Aβ42 aggregation time course, reading M117",3.419
same,"Th-T fluorescence, mean of three wells","Aβ42 aggregation time course, reading M118",3.454
same,"Th-T fluorescence, mean of three wells","Aβ42 aggregation time course, reading M119",3.399
same,"Th-T fluorescence, mean of three wells","Aβ42 aggregation time course, reading M120",3.398
same,"Th-T fluorescence, mean of three wells","Aβ42 aggregation time course, reading M121",3.42
same,"Th-T fluorescence, mean of three wells","Aβ42 aggregation time course, reading M122",3.434
same,"Th-T fluorescence, mean of three wells","Aβ42 aggregation time course, reading M123",3.405
same,"Th-T fluorescence, mean of three wells","Aβ42 aggregation time course, reading M124",3.409
same,"Th-T fluorescence, mean of three wells","Aβ42 aggregation time course, reading M125",3.379
same,"Th-T fluorescence, mean of three wells","Aβ42 aggregation time course, reading M126",3.403
same,"Th-T fluorescence, mean of three wells","Aβ42 aggregation time course, reading M127",3.386
same,"Th-T fluorescence, mean of three wells","Aβ42 aggregation time course, reading M128",3.37
same,"Th-T fluorescence, mean of three wells","Aβ42 aggregation time course, reading M129",3.334
same,"Th-T fluorescence, mean of three wells","Aβ42 aggregation time course, reading M130",3.361
same,"Th-T fluorescence, mean of three wells","Aβ42 aggregation time course, reading M131",3.331
same,"Th-T fluorescence, mean of three wells","Aβ42 aggregation time course, reading M132",3.363
same,"Th-T fluorescence, mean of three wells","Aβ42 aggregation time course, reading M133",3.349
same,"Th-T fluorescence, mean of three wells","Aβ42 aggregation time course, reading M134",3.347
same,"Th-T fluorescence, mean of three wells","Aβ42 aggregation time course, reading M135",3.342
same,"Th-T fluorescence, mean of three wells","Aβ42 aggregation time course, reading M136",3.355
same,"Th-T fluorescence, mean of three wells","Supplementary Fig. 47, reading M137",3.327
same,"Th-T fluorescence, mean of three wells","Supplementary Fig. 47, reading M138",3.302
same,"Th-T fluorescence, mean of three wells","Supplementary Fig. 47, reading M139",3.301
same,"Th-T fluorescence, mean of three wells","Supplementary Fig. 47, reading M140",3.319
same,"Th-T fluorescence, mean of three wells","Supplementary Fig. 47, reading M141",3.315
same,"Th-T fluorescence, mean of three wells","Supplementary Fig. 47, reading M142",3.306
same,"Th-T fluorescence, mean of three wells","Supplementary Fig. 47, reading M143",3.276
same,"Th-T fluorescence, mean of three wells","Supplementary Fig. 47, reading M144",3.297
same,"Th-T fluorescence, mean of three wells","Supplementary Fig. 47, reading M145",3.29
same,"Th-T assay plate reading, mean of three wells (Supplementary Fig. 47)",measurement M1,0.2852
same,"Th-T assay plate reading, mean of three wells (Supplementary Fig. 47)",measurement M2,0.2849
same,"Th-T assay plate reading, mean of three wells (Supplementary Fig. 47)",measurement M3,0.2915
same,"Th-T assay plate reading, mean of three wells (Supplementary Fig. 47)",measurement M4,0.2733
same,"Th-T assay plate reading, mean of three wells (Supplementary Fig. 47)",measurement M5,0.2777
same,"Th-T assay plate reading, mean of three wells (Supplementary Fig. 47)",measurement M6,0.2762
same,"Th-T assay plate reading, mean of three wells (Supplementary Fig. 47)",measurement M7,0.318
same,"Th-T assay plate reading, mean of three wells (Supplementary Fig. 47)",measurement M8,0.3144
same,"Th-T assay plate reading, mean of three wells (Supplementary Fig. 47)",measurement M9,0.404
same,"Th-T assay plate reading, mean of three wells (Supplementary Fig. 47)",measurement M10,0.4577
same,"Th-T assay plate reading, mean of three wells (Supplementary Fig. 47)",measurement M11,0.5537
same,"Th-T assay plate reading, mean of three wells (Supplementary Fig. 47)",measurement M12,0.8108
same,"Th-T assay plate reading, mean of three wells (Supplementary Fig. 47)",measurement M13,1.388
same,"Th-T assay plate reading, mean of three wells (Supplementary Fig. 47)",measurement M14,1.929
same,"Th-T assay plate reading, mean of three wells (Supplementary Fig. 47)",measurement M15,2.27
same,"Th-T assay plate reading, mean of three wells (Supplementary Fig. 47)",measurement M16,2.506
same,"Th-T fluorescence, mean of three wells","reading M17, Supplementary Fig. 47 source data",2.688
same,"Th-T fluorescence, mean of three wells","time-course reading M97, Supplementary Fig. 47 source data",3.56
same,"Th-T fluorescence, mean of three wells","time-course reading M98, Supplementary Fig. 47 source data",3.55
same,"Th-T fluorescence, mean of three wells","time-course reading M99, Supplementary Fig. 47 source data",3.504
same,"Th-T fluorescence, mean of three wells","time-course reading M100, Supplementary Fig. 47 source data",3.536
same,"Th-T fluorescence, mean of three wells","time-course reading M101, Supplementary Fig. 47 source data",3.529
same,"Th-T fluorescence, mean of three wells","time-course reading M102, Supplementary Fig. 47 source data",3.494
same,"Th-T fluorescence, mean of three wells","time-course reading M103, Supplementary Fig. 47 source data",3.477
same,"Th-T fluorescence, mean of three wells","time-course reading M104, Supplementary Fig. 47 source data",3.513
same,"Th-T fluorescence, mean of three wells","time-course reading M105, Supplementary Fig. 47 source data",3.503
same,"Th-T fluorescence, mean of three wells","time-course reading M106, Supplementary Fig. 47 source data",3.461
same,"Th-T fluorescence, mean of three wells","time-course reading M107, Supplementary Fig. 47 source data",3.469
same,"Th-T fluorescence, mean of three wells","time-course reading M108, Supplementary Fig. 47 source data",3.473
same,"Th-T fluorescence, mean of three wells","time-course reading M109, Supplementary Fig. 47 source data",3.5
same,"Th-T fluorescence, mean of three wells","time-course reading M110, Supplementary Fig. 47 source data",3.498
same,"Th-T fluorescence, mean of three wells","time-course reading M111, Supplementary Fig. 47 source data",3.4993
same,"Th-T fluorescence, mean of three wells","time-course reading M112, Supplementary Fig. 47 source data",3.484
same,"Th-T fluorescence, mean of three wells","time-course reading M113, Supplementary Fig. 47 source data",3.437
same,"Th-T fluorescence, mean of three wells","time-course reading M114, Supplementary Fig. 47 source data",3.447
same,"Th-T fluorescence, mean of three wells","time-course reading M115, Supplementary Fig. 47 source data",3.426
same,"Th-T fluorescence, mean of three wells","time-course reading M116, Supplementary Fig. 47 source data",3.43
